These results are taken from patent publication US20240376148A1, “MEDICAMENT FOR INHIBITING DIETARY OBESITY AND POLYPEPTIDE USED THEREFOR” (INSTITUTE OF ZOOLOGY, CHINESE ACADEMY OF SCIENCES, priority 2022, published 2024).

For assay [1] the following is noted: cited from earlier work.
The nature of assay [2]: Short-term feed intake experiment of SPF mice. It counts as in vivo, C57/B16J mice. The note with it: after 8 weeks of treatment, starved one day then fed. The method, then: A total of 2 treatments were set up, each with one cage of C57/B16J mice, and the high-fat diet used was rodent feed (containing 60 kcal % fat, D12492), and each treatment was subjected to different feeding treatments, specifically as follows:
HFD group (i.e. high-fat diet group): fed with high-fat diet.
(§1) D1 group (i.e. high-fat diet+D1 intragastric administration group): fed with high-fat diet, free diet and drinking water. Intragastrically administrated with synthetic D1, 0.75 mg-3 mg/Kg body weight, 0.2 ml, once/day for 8 weeks.
(§2) D2 group (i.e. high-fat diet+D2 intragastric administration group): fed with high-fat diet, free diet and drinking water. Intragastrically administrated with synthetic D2, 0.75 mg-3 mg/Kg body weight, 0.2 ml, once/day for 8 weeks.
D3 group (i.e. high-fat diet+D3 intragastric administration group): fed with high-fat diet, free diet and drinking water. […]
According to the above treatment, it was carried out for 8 weeks, and then within 1 week, the mice were starved for one day and then given feed, and the feed intake of the animals in the following day was recorded. That is, food weights were recorded every other day (4 separate measurements) and the average daily intake was determined for each 2-day period and calculated for each individual during the one-week measurement period. […]

The nature of assay [3]: SPF mice feeding experiment (high-fat diet). The format is in vivo, C57/B16J mice. The note with it: for weekly feed intake vs control HFD group: after 3-4 weeks; for body weight decrease compared with the HFD group: intragastric 0.75 mg-3 mg/Kg once/day, after 8 weeks; for subcutaneous and visceral fat weight (inguinal subcutaneous, epididymis, perirenal) vs HFD group: 8 weeks. As to the method:
C57/B16J mice were used in the SPF mice experiment. At the beginning of the experiment, C57/B16J mice were 4 weeks old, and each weighed 15±1 g. They were raised in a room with suitable temperature and humidity control, and the light/dark cycle was 12 hours, free diet and drinking water, and fed with standard laboratory feed (also known as growth and reproduction feed, item number SPFSLFZ003, product of SPF (Beijing) Experimental Animal Technology Co., Ltd.). After one week of adaptation, they were randomly assigned to a cage, 4-6 mice per cage.
A total of 12 treatments were set up, each with 2 cages of C57/B16J mice, and each treatment was subjected to different feeding treatments, specifically as follows:
NC group (i.e. normal diet group): fed with standard laboratory feed (also known as growth and reproduction feed, SPFSLFZ003), free diet and drinking water, each intragastrically administrated with 0.2 ml solvent daily for 8 weeks.
HFD group (i.e. high-fat diet group): fed with high-fat diet, the high-fat diet used was rodent feed (containing 60% fat, D12492, formula reference Le Roy, T., et al. Dysosmobacter welbionis is a newly isolated human commensal bacterium preventing diet-induced obesity and metabolic disorders in mice. Gut (2021).), free diet and drinking water, each intragastrically administrated with 0.2 ml solvent daily for 8 weeks.
as §1, §2
D3 group (i.e. high-fat diet+D3 intragastric administration group): fed with high-fat diet, free diet and drinking water. Intragastrically administrated with synthetic D3, 0.75 mg-3 mg/Kg body weight, 0.2 ml, once/day for 8 weeks.
D4 group (i.e. high-fat diet+D4 intragastric administration group): fed with high-fat diet, free diet and drinking water. Intragastrically administrated with synthetic D4, 0.75 mg-3 mg/Kg body weight, 0.2 ml, once/day for 8 weeks.
D5 group (i.e. high-fat diet+D5 intragastric administration group): fed with high-fat diet, free diet and drinking water. Intragastrically administrated with synthetic D5, 0.75 mg-3 mg/Kg body weight, 0.2 ml, once/day for 8 weeks.
D6 group (i.e. high-fat diet+D6 intragastric administration group): fed with high-fat diet, free diet and drinking water. Intragastrically administrated with synthetic D6, 0.75 mg-3 mg/Kg body weight, 0.2 ml, once/day for 8 weeks.
D7 group (i.e. high-fat diet+D7 intragastric administration group): fed with high-fat diet, free diet and drinking water. Intragastrically administrated with synthetic D7, 0.75 mg-3 mg/Kg body weight, 0.2 ml, once/day for 8 weeks.
D8 group (i.e. high-fat diet+D8 intragastric administration group): fed with high-fat diet, free diet and drinking water. Intragastrically administrated with synthetic D8, 0.75 mg-3 mg/Kg body weight, 0.2 ml, once/day for 8 weeks.
D9 group (i.e. high-fat diet+D9 intragastric administration group): fed with high-fat diet, free diet and drinking water. Intragastrically administrated with synthetic D9, 0.75 mg-3 mg/Kg body weight, 0.2 ml, once/day for 8 weeks.
D10 group (i.e. high-fat diet+D10 intragastric administration group): fed with high-fat diet, free diet and drinking water. Intragastrically administrated with synthetic D10, 0.75 mg-3 mg/Kg body weight, 0.2 ml, once/day for 8 weeks.
The feed intake was tracked every week. After the experiment, the mice were weighed and photographs were taken to compare the body size of the mice. After that, the mice were killed by cervical dislocation. […]

In a further assay the test system is A. muciniphila. Put plainly: qPCR of relative abundance of A. muciniphila in intestinal flora of SPF mice. The format is in vivo. The note with it: p<0.05. As to the method: In order to verify the changes in the relative abundance of A.muciniphila in the intestinal flora of mice fed with other HD, qPCR experiments were performed on the changes of intestinal flora in mice. Faecal bacterial DNA was extracted from the faeces of mice in the NC, HFD, D1, D2, D3, D5, D7, D8, D9 and D10 groups collected in the pre-SPF mice experiments and then the relative abundance of A. muciniphila was determined using qPCR.
A general note: In qPCR the cycle at which signal appears reflects the starting amount.

Setting [4] is: Phase 3, overweight or obese adults, subcutaneous 2.4 mg/week.

On to `C[C@H]1CNCCc2ccc(Cl)cc21` [Lorcaserin], for which the “additional weight lost per year” value in assay [1] (obese subjects during the medication period) is 3.2 to 3.6 kg.

`CCCCCCCCCCC[C@@H](C[C@@H]1OC(=O)[C@H]1CCCCCC)OC(=O)[C@H](CC(C)C)NC=O` [orlistat, Orlistat]: the body weight lost in assay [1] (obese patients, within 12 months) is 2.9 to 3.4 kg.

For the compound ATCYRRTGR [D4], the “short-term feed intake vs HFD group” value in assay [2] is recorded as “no significant effect”. In addition, in assay [3], the “weekly feed intake vs control HFD group” value was “no significant effect” and the “body weight decrease compared with the HFD group” value (“body weight decrease” below) worked out at 3.55%.

On to ATRYCRTGR [D6], for which, in assay [2], the “short-term feed intake vs HFD group” value is “no significant effect”. In assay [3], the “weekly feed intake vs control HFD group” value is given as “no significant effect” and the “body weight decrease” value amounted to 3.78%.

On to GTCYCRTGR [D7], for which, in the assay on A. muciniphila, the “relative abundance of A. muciniphila in the intestinal flora by qPCR” value (from here on “relative abundance of A. muciniphila”) was “significantly increased”. Besides, in assay [3], the “subcutaneous and visceral fat weight (inguinal subcutaneous, epididymis, perirenal) vs HFD group” value was “significantly lower than that of the HFD group”; the “weekly feed intake vs control HFD group” value was “significant difference in feed intake”; the “body weight decrease” value is listed as 8.08%.

Turning to GTCYKRTGR [D2], the “relative abundance of A. muciniphila” value in the assay with A. muciniphila is “significantly increased”. In addition, in assay [3], the “subcutaneous and visceral fat weight (inguinal subcutaneous, epididymis, perirenal) vs HFD group” value is listed as “significantly lower than that of the HFD group”; the “weekly feed intake vs control HFD group” value is “significant difference in feed intake”; the “body weight decrease” value is reported as 9.45%.

Turning to GTRYCRTGR [D10], the “relative abundance of A. muciniphila” value with A. muciniphila is reported as “significantly increased”. In assay [3], the “subcutaneous and visceral fat weight (inguinal subcutaneous, epididymis, perirenal) vs HFD group” value was “significantly lower than that of the HFD group”; the “weekly feed intake vs control HFD group” value was “significant difference in feed intake”; the “body weight decrease” value is reported as 11.06%.

Take GTRYKRTGR [D8]: the “relative abundance of A. muciniphila” value with A. muciniphila is given as “significantly increased”. Besides, in assay [3], the “subcutaneous and visceral fat weight (inguinal subcutaneous, epididymis, perirenal) vs HFD group” value is reported as “significantly lower than that of the HFD group”; the “weekly feed intake vs control HFD group” value is “significant difference in feed intake”; the “body weight decrease” value was found to be 10.07%.

Take RTCYCRTGR [D9]: the “relative abundance of A. muciniphila” value with A. muciniphila was “significantly increased”. Also, in assay [3], the “subcutaneous and visceral fat weight (inguinal subcutaneous, epididymis, perirenal) vs HFD group” value is “significantly lower than that of the HFD group”; the “weekly feed intake vs control HFD group” value is reported as “significant difference in feed intake”; the “body weight decrease” value was 11.09%.

With RTCYKRTGR [D5], in the assay with A. muciniphila, the “relative abundance of A. muciniphila” value was “significantly increased”. For the same compound, in assay [3], the “subcutaneous and visceral fat weight (inguinal subcutaneous, epididymis, perirenal) vs HFD group” value is “significantly lower than that of the HFD group”; the “weekly feed intake vs control HFD group” value was “significant difference in feed intake”; the “body weight decrease” value stood at 11.8%.

For the compound RTRYKRTGR [D1], the “relative abundance of A. muciniphila” value with A. muciniphila is recorded as “significantly increased”. In assay [3], the “subcutaneous and visceral fat weight (inguinal subcutaneous, epididymis, perirenal) vs HFD group” value was “significantly lower than that of the HFD group”; the “weekly feed intake vs control HFD group” value was “significant difference in feed intake”; the “body weight decrease” value is 11.62%.

As to semaglutide, in assay [1] (setting [4]), the average weight lost is listed as 15.3 kg; the “average weight lost, of initial body weight” value is 14.9%; the “mean body mass index (BMI) drop” value is recorded as 5.54.
